Assay results from ChEMBL document CHEMBL1201862, “PubChem BioAssay data set” (2004).
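The compound was tested at five concentrations on cells cultured in 96-well plates, with a 48-hour exposure period. GI50: concentration for 50% inhibition of growth.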 The source made the active and inactive calls. Cut-off read from the data, not from the text of the source: active = GI50 up to about 1.1 µM and inactive = higher.

How the values were obtained:
Assay in all cases: growth of human tumour cells (NCI), 48 h
OVCAR-3 = test system: OVCAR-3
MDA-MB-435 = test system: MDA-MB-435
SW-620 = test system: SW-620
NCI-H226 = test system: NCI-H226
HL-60 = test system: HL-60
SK-MEL-28 = test system: SK-MEL-28
SF-539 = test system: SF-539
U-251 = test system: U-251
OVCAR-5 = test system: OVCAR-5
CAKI-1 = test system: CAKI-1
PC-3 = test system: PC-3
Malme-3M = test system: Malme-3M
SNB-75 = test system: SNB-75
SK-OV-3 = test system: SK-OV-3
RPMI-8226 = test system: RPMI-8226
MDA-N = test system: MDA-N
UACC-62 = test system: UACC-62
A549 = test system: A549
UACC-257 = test system: UACC-257
SR = test system: SR

Measured: GI50

COC(=O)Nc1nc2cc(NS(=O)(=O)c3cccs3)ccc2[nH]1
inactive: OVCAR-3 14.6 µM | MDA-MB-435 3.62 µM | SW-620 20.7 µM | NCI-H226 32.2 µM | HL-60 23 µM | SK-MEL-28 19.3 µM | SF-539 29.2 µM | U-251 30.4 µM | OVCAR-5 37.2 µM | CAKI-1 30.4 µM | PC-3 33.9 µM | Malme-3M 10.4 µM | SNB-75 20.7 µM | SK-OV-3 28.4 µM | RPMI-8226 35.1 µM | MDA-N 3.56 µM | UACC-62 17 µM | A549 43.9 µM

CCOC(=O)C1C(C)C2(C#N)C(=N)OC1(C)C2(C#N)C#N (stereo not drawn)
inactive: UACC-257 42.1 µM | MDA-MB-435 65.9 µM | SW-620 84.7 µM | NCI-H226 73.8 µM | HL-60 21.8 µM | SK-MEL-28 28.1 µM | SF-539 47.2 µM | U-251 69.2 µM | OVCAR-5 > 100 µM | CAKI-1 53.6 µM | PC-3 > 100 µM | Malme-3M 77.3 µM | SNB-75 27.6 µM | SK-OV-3 > 100 µM | RPMI-8226 18.5 µM | MDA-N 46.1 µM | UACC-62 46 µM | A549 > 100 µM

COc1cc(-c2cc(OC)c(OC)c3ccc(Br)cc23)c2cc(Br)ccc2c1OC
inactive: UACC-257 46.1 µM | OVCAR-3 21 µM | MDA-MB-435 23.7 µM | SW-620 80.5 µM | NCI-H226 23.3 µM | SK-MEL-28 20.1 µM | SF-539 21.5 µM | U-251 20.5 µM | SR 34.4 µM | OVCAR-5 15.9 µM | CAKI-1 47.4 µM | PC-3 20.6 µM | Malme-3M 24.1 µM | SK-OV-3 30.8 µM | RPMI-8226 21.4 µM | MDA-N 22.5 µM | UACC-62 21.9 µM | A549 20.3 µM

COC(=O)C1CC(C=[N+](C)C)=C(SC)N1C(=O)OCc1ccccc1 (stereo not drawn)
inactive: UACC-257 > 100 µM | OVCAR-3 > 100 µM | MDA-MB-435 > 100 µM | SW-620 > 100 µM | SK-MEL-28 > 100 µM | U-251 > 100 µM | SR > 100 µM | OVCAR-5 > 100 µM | CAKI-1 > 100 µM | PC-3 > 100 µM | Malme-3M > 100 µM | SNB-75 > 100 µM | SK-OV-3 > 100 µM | RPMI-8226 > 100 µM | MDA-N > 100 µM | UACC-62 > 100 µM | A549 > 100 µM

CC(=O)OCCCCn1nncc1Cn1ccc(=O)n(Cc2cnnn2CCCCOC(C)=O)c1=O
inactive: UACC-257 > 100 µM | OVCAR-3 > 100 µM | MDA-MB-435 > 100 µM | SW-620 > 100 µM | NCI-H226 > 100 µM | SK-MEL-28 > 100 µM | SF-539 > 100 µM | U-251 > 100 µM | OVCAR-5 > 100 µM | CAKI-1 > 100 µM | PC-3 > 100 µM | Malme-3M > 100 µM | SNB-75 > 100 µM | SK-OV-3 > 100 µM | RPMI-8226 > 100 µM | MDA-N > 100 µM | UACC-62 > 10 µM | A549 > 100 µM

CC(C(O)c1ccccc1)N(C)/N=N/c1nc2c([nH]1)c(=O)n(C)c(=O)n2C (stereo not drawn)
inactive: UACC-257 > 100 µM | OVCAR-3 > 100 µM | MDA-MB-435 75.3 µM | SW-620 > 100 µM | NCI-H226 > 100 µM | HL-60 > 100 µM | SK-MEL-28 > 100 µM | U-251 > 100 µM | OVCAR-5 > 100 µM | CAKI-1 58.6 µM | PC-3 95.3 µM | Malme-3M > 100 µM | SNB-75 > 100 µM | SK-OV-3 > 100 µM | RPMI-8226 48.9 µM | MDA-N 44.8 µM | UACC-62 > 100 µM | A549 50.8 µM

CC(=O)OC(C#N)CC(C)(C)/[N+]([O-])=[N+](\[O-])C(C)(C)CC(C#N)OC(C)=O (stereo not drawn)
inactive: UACC-257 16.9 µM | OVCAR-3 16.6 µM | MDA-MB-435 16.1 µM | SW-620 5.47 µM | NCI-H226 20.7 µM | SK-MEL-28 26 µM | U-251 15.8 µM | SR 2.41 µM | OVCAR-5 23 µM | CAKI-1 15 µM | PC-3 15.3 µM | Malme-3M 18.5 µM | SNB-75 15.1 µM | SK-OV-3 > 100 µM | RPMI-8226 15.8 µM | MDA-N 14.3 µM | UACC-62 16.7 µM | A549 30.1 µM

COc1cc2c(cc1O)CC[n+]1cc3c(OC)c(OC)ccc3cc1-2
inactive: UACC-257 90.4 µM | OVCAR-3 59.4 µM | MDA-MB-435 > 100 µM | SW-620 > 100 µM | NCI-H226 > 100 µM | HL-60 > 100 µM | SK-MEL-28 > 100 µM | SF-539 > 100 µM | U-251 35.6 µM | OVCAR-5 > 100 µM | CAKI-1 > 100 µM | PC-3 > 100 µM | Malme-3M 59.6 µM | SNB-75 > 100 µM | SK-OV-3 > 100 µM | RPMI-8226 81.8 µM | MDA-N > 100 µM | UACC-62 > 100 µM | A549 > 100 µM

Nc1nc2cc(CNc3ccc(C(=O)NC(CCC(=O)O)C(=O)O)cc3)ccc2nc1-c1ccccc1 (stereo not drawn)
inactive: UACC-257 > 10 µM | OVCAR-3 > 10 µM | MDA-MB-435 > 10 µM | SW-620 > 10 µM | NCI-H226 > 10 µM | HL-60 > 10 µM | SK-MEL-28 > 10 µM | SF-539 > 10 µM | U-251 > 10 µM | OVCAR-5 > 10 µM | CAKI-1 > 10 µM | PC-3 > 10 µM | Malme-3M > 10 µM | SNB-75 > 10 µM | SK-OV-3 > 10 µM | RPMI-8226 > 10 µM | MDA-N > 10 µM | UACC-62 > 10 µM | A549 > 10 µM

CC(=O)NS(=O)(=O)c1ccc(NCc2cccc3c(=O)c4ccc(Cl)cc4oc23)cc1
inactive: UACC-257 > 56.6 µM | OVCAR-3 44.6 µM | MDA-MB-435 38.3 µM | SW-620 34 µM | NCI-H226 93.3 µM | HL-60 1.44 µM | SK-MEL-28 73.8 µM | SF-539 17.1 µM | U-251 31.6 µM | OVCAR-5 > 100 µM | CAKI-1 20.5 µM | PC-3 38.5 µM | Malme-3M 26.4 µM | SNB-75 64 µM | SK-OV-3 > 53.8 µM | RPMI-8226 11.2 µM | MDA-N 42.6 µM | UACC-62 48 µM | A549 > 80.9 µM

CC1OC1P(=O)(O)O (stereo not drawn)
inactive: UACC-257 > 100 µM | OVCAR-3 > 100 µM | MDA-MB-435 > 100 µM | SW-620 > 100 µM | SK-MEL-28 > 100 µM | U-251 > 100 µM | SR > 100 µM | OVCAR-5 26.3 µM | CAKI-1 > 100 µM | PC-3 > 100 µM | SNB-75 > 100 µM | SK-OV-3 > 100 µM | RPMI-8226 28 µM | MDA-N > 100 µM | UACC-62 > 100 µM | A549 > 100 µM
